Consider 58 compounds from patent publication US7943608B2, “Diazepinoes” (Merck Patent GmbH, priority 2005, dated 2011).

In one test the target is T1, His6-PDK1(Δ1-50) (Homo sapiens, UniProt O15530).
T1 construct: His6 (N)
T1 sequence (O15530 51-556): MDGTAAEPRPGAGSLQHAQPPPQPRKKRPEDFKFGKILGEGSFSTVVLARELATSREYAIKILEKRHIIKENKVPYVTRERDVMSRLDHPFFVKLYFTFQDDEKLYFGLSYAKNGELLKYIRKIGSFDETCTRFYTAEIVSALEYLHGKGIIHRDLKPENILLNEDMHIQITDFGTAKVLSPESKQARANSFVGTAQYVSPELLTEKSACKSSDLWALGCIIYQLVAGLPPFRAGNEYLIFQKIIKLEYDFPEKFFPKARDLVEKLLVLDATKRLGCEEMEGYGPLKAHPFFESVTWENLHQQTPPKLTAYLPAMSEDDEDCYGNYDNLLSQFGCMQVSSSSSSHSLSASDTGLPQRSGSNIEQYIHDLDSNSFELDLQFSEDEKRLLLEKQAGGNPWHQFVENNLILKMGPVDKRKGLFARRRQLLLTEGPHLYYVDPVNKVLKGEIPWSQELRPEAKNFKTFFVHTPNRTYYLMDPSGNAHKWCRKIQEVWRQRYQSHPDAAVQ
Briefly: Inhibition of PDK1 (IC50), 384-well flashplate kinase assay. The class given is biochemical. As to conditions: 4 μM ATP, 400 nM PDKtide, first part of Table 1 (compounds 1-31). The method, then:
Inhibition of PDK1 (IC50)
The kinase assay can be carried out as a 384-well flashplate assay. 3.4 nM His6-PDK1(Δ1-50), 400 nM PDKtide (biotin-bA-bA-[…]) and 4 μM ATP (with 0.2 μCi of 33P-ATP/well) are incubated at […] for 60 min in a total volume of 50 μl (50 mM TRIS, 10 mM Mg acetate, 0.1% of mercaptoethanol, 0.02% of Brij35, 0.1% of BSA, pH 7.5) with or without test substance (5-10 concentrations). The reaction is stopped using 25 μl of 200 mM EDTA solution, filtered with suction after 30 min at room temperature, and the wells are washed with 3 times 100 μl of 0.9% NaCl solution. The nonspecific content of the kinase reaction (blank) is determined using 100 nM staurosporine. Radioactivity is measured using a Topcount scintillation counter (PerkinElmer, USA). IC50 values are calculated using the RS1 computer program.
`CN1CCC(N(C)c2ncc3c(n2)Nc2ccccc2NC3=O)CC1` [Compound 1]: the IC50 came to 2300 nM. On the same count and under the same terms, for `Cc1ccc2c(c1)Nc1nc(N(C)C3CCN(C)CC3)ncc1C(=O)N2` [Compound 2, 7-Methyl-3-[methyl(1-methylpiperidin-4-yl)amino]-5,10-dihydro-2,4,5,10-tetraazadibenzo[a,d]cyclohepten-11-one] the value was 2400 nM. Still for that read-out and setting: the figure for `Cc1cc2c(cc1C)Nc1nc(N(C)C3CCN(C)CC3)ncc1C(=O)N2` [Compound 3, 7,8-Dimethyl-3-[methyl(1-methylpiperidin-4-yl)amino]-5,10-dihydro-2,4,5,10-tetraazadibenzo[a,d]cyclohepten-11-one] is 1000 nM.

`CN1CCC(N(C)c2ncc3c(n2)Nc2ccc(Cl)cc2NC3=O)CC1` [Compound 4, 8-Chloro-3-[methyl(1-methylpiperidin-4-yl)amino]-5,10-dihydro-2,4,5,10-tetraazadibenzo[a,d]cyclohepten-11-one] gave an IC50 of 1400 nM.

For `COc1ccc2c(c1)NC(=O)c1cnc(N(C)C3CCN(C)CC3)nc1N2` [Compound 5, S-Methoxy-3-[methyl(1-methylpiperidin-4-yl)amino]-5,10-dihydro-2,4,5,10-tetraazadibenzo[a,d]cyclohepten-11-one], half-maximal inhibition (IC50) was put at 800 nM. On the same count and under the same terms, for `Cc1ccc2c(c1)NC(=O)c1cnc(N(C)C3CCN(C)CC3)nc1N2` [Compound 6, 8-Methyl-3-[methyl(1-methylpiperidin-4-yl)amino]-5,10-dihydro-2,4,5,10-tetraazadibenzo[a,d]cyclohepten-11-one] the value was 1100 nM; for `COc1ccc2c(c1)NC(=O)c1cnc(NC3CCN(C)CC3)nc1N2` [Compound 7, 8-Methoxy-3-(1-methylpiperidin-4-ylamino)-5,10-dihydro-2,4,5,10-tetraazadibenzo[a,d]cyclohepten-11-one], 3100 nM. The same measure, in the same setting: for `Cc1cc2c(cc1C)Nc1nc(NC3CCN(C)CC3)ncc1C(=O)N2` [Compound 8, 7,8-Dimethyl-3-(1-methylpiperidin-4-ylamino)-5,10-dihydro-2,4,5,10-tetraazadibenzo[a,d]cyclohepten-11-one] the value was 2500 nM; for `Cc1ccc2c(c1)Nc1nc(NC3CCN(C)CC3)ncc1C(=O)N2` [Compound 9, 7-Methyl-3-(1-methylpiperidin-4-ylamino)-5,10-dihydro-2,4,56,10-tetraazadibenzo[a,d]cyclohepten-11-one], 4800 nM.

With `CN1CCC(N(C)c2ncc3c(n2)Nc2cc(Cl)ccc2NC3=O)CC1` [Compound 10], the midpoint of inhibition, the IC50, lay at 1700 nM. On the same count and under the same terms, the figure for `CN1CCC(Nc2ncc3c(n2)Nc2cc(C(F)(F)F)ccc2NC3=O)CC1` [Compound 11] is 3900 nM; for `Cc1ccc2c(c1)NC(=O)c1cnc(NC3CCN(C)CC3)nc1N2` [Compound 12] it is 900 nM; for `CN1CCC(N(C)c2ncc3c(n2)Nc2ccc(Br)cc2NC3=O)CC1` [Compound 13] it is 1700 nM. Take `Cc1ccc2c(c1)NC(=O)c1cnc(N(C)C3CCN(C)CC3)nc1N2` [Compound 14]: the IC50 was 400 nM. Against the preceding compound, the IC50 is about 4.2-fold lower. Still for that read-out and setting: the figure for `CCOc1ccc2c(c1)NC(=O)c1cnc(N(C)C3CCN(C)CC3)nc1N2` [Compound 15] is 900 nM; for `CN1CCC(N(C)c2ncc3c(n2)Nc2ccc(C(C)(C)C)cc2NC3=O)CC1` [Compound 16] it is 400 nM; for `CN1CCC(N(C)c2ncc3c(n2)Nc2ccc(C(F)(F)F)cc2NC3=O)CC1` [Compound 17] it is 1600 nM. The same measure, in the same setting: the figure for `CN1CCC(Nc2ncc3c(n2)Nc2ccc(C(C)(C)C)cc2NC3=O)CC1` [Compound 18] is 700 nM; for `Cc1ccc2c(c1)NC(=O)c1cnc(NC3CCN(C)CC3)nc1N2` [Compound 19] it is 600 nM; for `CCN(c1ncc2c(n1)Nc1ccc(C)cc1NC2=O)C1CCN(C)CC1` [Compound 20] it is 2800 nM.

`CCOc1ccc2c(c1)NC(=O)c1cnc(NC3CCN(C)CC3)nc1N2` [Compound 21] displayed an IC50 of 1000 nM. The same measure, in the same setting: for `Cc1ccc2c(c1C)Nc1nc(N(C)C3CCN(C)CC3)ncc1C(=O)N2` [Compound 22] the value was 2600 nM; for `Cc1ccc2c(c1C)Nc1nc(NC3CCN(C)CC3)ncc1C(=O)N2` [Compound 23], 3600 nM. `CN1CCC(N(C)c2ncc3c(n2)Nc2ccc(-c4ccsc4)cc2NC3=O)CC1` [Compound 25]: the IC50 is 1000 nM. The same measure, in the same setting: the figure for `Cc1ccc2c(c1)NC(=O)c1cnc(N(C(C)C)C3CCN(C)CC3)nc1N2` [Compound 26] is 6200 nM. Compound `Cc1noc(C)c1-c1ccc2c(c1)NC(=O)c1cnc(N(C)C3CCN(C)CC3)nc1N2` [Compound 29] had an IC50 of 3200 nM. This IC50 lies about 1.9-fold lower than the previous one.

The test is the same for the next values; noted with them: 4 μM ATP, 400 nM PDKtide, second part of Table 1 (compounds 32-124).
In the case of `Cc1cc2c(cc1C)Nc1nc(N(C)C3CCN(C)CC3)ncc1C(=O)N2` [Compound 32], the IC50 was determined as 640 nM. Same read-out and setting: the figure for `Cc1cc(C)c2c(c1)NC(=O)c1cnc(N(C)C3CCN(C)CC3)nc1N2` [Compound 33] is 1300 nM. Still for that read-out and setting: for `Cc1cc(C)c2c(c1)NC(=O)c1cnc(NC3CCN(C)CC3)nc1N2` [Compound 34] the value was 3700 nM; for `CN1CCC(N(C)c2ncc3c(n2)Nc2cc(Cl)c(Cl)cc2NC3=O)CC1` [Compound 35], 3700 nM.

For the compound `CN1CCC(Nc2ncc3c(n2)Nc2cc(Cl)c(Cl)cc2NC3=O)CC1` [Compound 36], the IC50 amounted to 1200 nM.

Turning to `CN1CCC(Nc2ncc3c(n2)Nc2ccc(N(C)C)cc2NC3=O)CC1` [Compound 37], the IC50 worked out at 190 nM.

`CN1CCC(N(C)c2ncc3c(n2)Nc2ccc(C#N)cc2NC3=O)CC1` [Compound 38]: the IC50 worked out at 600 nM.

`CCN1CCC(Nc2ncc3c(n2)Nc2cc(Cl)c(Cl)cc2NC3=O)CC1` [Compound 39] gave a 50% inhibitory concentration (IC50) of 4900 nM. Same read-out and setting: the figure for `CCN1CCC(Nc2ncc3c(n2)Nc2ccc(C(C)(C)C)cc2NC3=O)CC1` [Compound 40] is 1400 nM; for `CCN1CCC(Nc2ncc3c(n2)Nc2c(ccc(C)c2C)NC3=O)CC1` [Compound 41] it is 6300 nM.

Consider `CCN1CCC(Nc2ncc3c(n2)Nc2c(C)cc(C)cc2NC3=O)CC1` [Compound 42], for which 4800 nM corresponded to half-maximal inhibition (IC50).

The compound `CCOc1ccc2c(c1)NC(=O)c1cnc(NC3CCN(CC)CC3)nc1N2` [Compound 43] gave an IC50 of 2000 nM. On the same count and under the same terms, the figure for `CCN1CCC(Nc2ncc3c(n2)Nc2ccc(C(C)C)cc2NC3=O)CC1` [Compound 44] is 920 nM; for `CCN1CCC(Nc2ncc3c(n2)Nc2ccc(C)cc2NC3=O)CC1` [Compound 45] it is 1500 nM; for `Cc1cccc2c1Nc1nc(NC3CCN(C)CC3)ncc1C(=O)N2` [Compound 46] it is 2400 nM. Same read-out and setting: for `CCN1CCC(Nc2ncc3c(n2)Nc2cc(C)c(C)cc2NC3=O)CC1` [Compound 47] the value was 1500 nM.

`CCN(c1ncc2c(n1)Nc1ccc(C(C)C)cc1NC2=O)C1CCN(C)CC1` [Compound 48] returned a half-inhibitory concentration (IC50) of 3000 nM. Turning to `CCOc1ccc2c(c1)NC(=O)c1cnc(NC3CCN(C(C)C)CC3)nc1N2` [Compound 49], the IC50 was determined as 5100 nM. In the case of `CC(C)c1ccc2c(c1)NC(=O)c1cnc(NC3CCN(C(C)C)CC3)nc1N2` [Compound 50], the midpoint of inhibition, the IC50, lay at 1200 nM. Still for that read-out and setting: the figure for `CC(C)N1CCC(Nc2ncc3c(n2)Nc2ccc(C(C)(C)C)cc2NC3=O)CC1` [Compound 51] is 2700 nM; for `CC(C)N1CCC(Nc2ncc3c(n2)Nc2ccc(F)cc2NC3=O)CC1` [Compound 52] it is 3600 nM; for `Cc1ccc2c(c1)NC(=O)c1cnc(NC3CCN(C(C)C)CC3)nc1N2` [Compound 53] it is 2400 nM. In the case of `CCN1CCC(Nc2ncc3c(n2)Nc2c(C)cccc2NC3=O)CC1` [Compound 54], the IC50 was 7100 nM. Still for that read-out and setting: for `CCN1CCC(Nc2ncc3c(n2)Nc2ccc(C#N)cc2NC3=O)CC1` [Compound 55] the value was 2300 nM; for `CN1CCC(Nc2ncc3c(n2)Nc2ccc(C#N)cc2NC3=O)CC1` [Compound 56], 1500 nM; for `Cc1cc2c(cc1C)Nc1nc(NC3CCN(C(C)C)CC3)ncc1C(=O)N2` [Compound 57], 2000 nM. Same read-out and setting: the figure for `CC(C)N1CCC(Nc2ncc3c(n2)Nc2ccc(C#N)cc2NC3=O)CC1` [Compound 58] is 7100 nM; for `CCN(c1ncc2c(n1)Nc1ccc(F)cc1NC2=O)C1CCN(C)CC1` [Compound 59] it is 2400 nM; for `CCN1CCC(Nc2ncc3c(n2)Nc2ccc(C(F)(F)F)cc2NC3=O)CC1` [Compound 60] it is 2900 nM. As to `CC(C)N1CCC(Nc2ncc3c(n2)Nc2ccc(C(F)(F)F)cc2NC3=O)CC1` [Compound 61], the IC50 stood at 6500 nM. Same read-out and setting: the figure for `CN1CCC(Nc2ncc3c(n2)Nc2ccc(C(F)(F)F)cc2NC3=O)CC1` [Compound 62] is 1800 nM; for `CN1CCC(N(C)c2ncc3c(n2)Nc2ccc(-c4cccs4)cc2NC3=O)CC1` [Compound 63] it is 1000 nM.
